From paper PMC10671431, “New Derivatives of N-Hydroxybutanamide: Preparation, MMP Inhibition, Cytotoxicity, and Antitumor Activity” (International Journal of Molecular Sciences, 2023)

Legend:
HeLa = assay: Cytotoxicity, MTT test; assay type: cell-based, human; details: Homo sapiens, HeLa, 72 h of exposure
Experimental: (§1) Cell culture. A-172 (human glioblastoma cells), HepG2 (human hepatocellular carcinoma cells), M-HeLa (human cervical adenocarcinoma cells, M subclone), Vero (African green monkey kidney epithelial cells), and FetMSC (human embryonic mesenchymal stem cells) were purchased from the Russian Collection of Cell Cultures of Vertebrates (Institute of Cytology RAS, St. Petersburg, Russia). The U-251 MG cell line (human glioblastoma-astrocytoma) was purchased from the European Collection of Authenticated Cell Cultures (Salisbury, UK). All cells were grown at 37 °C in an atmosphere of 5% CO2. A-172 and Vero cells were cultured in DMEM medium (PanEco, Moscow, Russia). HepG2, HeLa, and U-251 MG cells were cultured in EMEM medium (PanEco). FetMSC cells were cultured in F12/DMEM medium (PanEco). All incubation media were supplemented with 10% fetal calf serum (BioWest, Nuaillé, France), 50 U/mL penicillin, and […] streptomycin (PanEco). Additionally, media for HeLa, HepG2, and U-251 MG cells were supplemented with 2 mM glutamine (PanEco) and 1% essential amino acids (PanEco), media for A-172 and Vero cells were supplemented with 4 mM glutamine, and the medium for FetMSC cells was supplemented with 3 mM glutamine. The medium for U-251 MG cells was additionally supplemented with 1 mM sodium pyruvate (PanEco).
(§2) Cytotoxicity studies. The cytotoxicity of the compounds was assessed using the MTT test. Cells were seeded into 96-well plates at varying concentrations of 5 × 10^4 cells/mL (A-172, Vero and HeLa), 7 × 10^4 cells/mL (HepG2 and U-251 MG), and 10 × 10^4 cells/mL (FetMSC). The studied compounds were added to the incubation medium 24 h after seeding at concentrations ranging from 7.8 μM to 500 μM. All compounds were dissolved in DMSO and diluted with the incubation medium to their final concentrations just before use. The incubation medium in wells was aspirated and replaced with medium containing the studied compounds. The final concentration of DMSO in all samples was 0.1%. Control samples were treated with 0.1% DMSO. After 72 h of exposure, 3-(4,5-dimethylthiazol-2-yl)-2,5-diphenyl-2H-tetrazolium bromide (MTT) (Dia-M, Moscow, Russia) was added to the incubation medium at a concentration of 0.5 mg/mL. The resulting MTT-formazan crystals were dissolved in DMSO. The optical density was measured at 570 nm with a background wavelength of 620 nm using a Spark 10M plate reader. IC50 values were determined using a median effect analysis from the dose–effect relationships.

FetMSC = assay: Cytotoxicity, MTT test; assay type: cell-based, human
Experimental: as §1, §2

A-172 = assay: Cytotoxicity, MTT test; assay type: cell-based, human; details: Homo sapiens, A 172, 72 h of exposure
Experimental: as §1, §2

HepG2 = assay: Cytotoxicity, MTT test; assay type: cell-based, human; details: Homo sapiens, HepG2, 72 h of exposure
Experimental: as §1, §2

Vero = assay: Cytotoxicity, MTT test; assay type: cell-based, African green monkey; details: Chlorocebus sabaeus, Vero, 72 h of exposure
Experimental: as §1, §2

U-251 MG = assay: Cytotoxicity, MTT test; assay type: cell-based; details: Homo sapiens, 72 h of exposure
Experimental: as §1, §2

B16 melanoma [1] = assay: Antimetastatic activity in vivo, lung metastases; set-up: species or system mouse
Experimental: (§3) Antitumor activity in vivo. The B16 mouse melanoma was used as a tumor model. The B16 melanoma tumor strain was induced in male BDF1 mice by subcutaneous inoculation of 0.2–0.5 mL of a suspension of tumor tissue in medium 199 at intervals of 12–16 days. For the experiments, BDF1 mice were inoculated with 0.3 mL of a suspension of tumor tissue diluted in a 0.9% NaCl solution at a ratio of 1:5 subcutaneously on the right side.
(§4) Compound 4 was dissolved in a 0.9% NaCl solution with 1% DMSO. […] Control animals were injected intraperitoneally with 1% DMSO in saline (0.9% NaCl) in the same volumes as the test compounds.
And MNMcont. are the mean number of metastases in the experimental and control groups, respectively.

MMP-14 = target: T1, MMP-14 (Homo sapiens, UniProt P50281); assay: MMP activity assay, fluorogenic substrate (MMP Inhibitor Profiling Kit); assay type: biochemical
T1 construct: the BML- prefix points to Enzo Life Sciences, own knowledge BML-AK308
Experimental: (§5) Determination of MMP activity. A fluorescently labeled substrate probe containing a fluorescent label and a fluorescence quencher, was utilized for this study. […] Enzyme activity was assessed using the MMP Inhibitor Profiling Kit (Product # BML-AK308, New York, NY, USA) according to the manufacturer’s recommendations. The nonspecific inhibitor NNGH was used as a positive control. The fluorescence of the fluorogenic substrate OmniMMP^TM RED was measured at wavelengths Ex/Em = 545/576 nm using a Spark 10M multimode plate reader (Tecan, Zurich, Switzerland). Reaction rates were expressed in relative fluorescence units (RFUs) per minute. The activity of MMPs in the presence of the studied compounds was determined as follows:Activity, % = (Vinh/Vcont) × 100,(1) where V is the initial reaction rate (RFUs/min) in the presence (Vinh) and absence (Vcont) of the studied compounds.
(§6) All tested compounds were dissolved in DMSO. The final concentration of DMSO in all samples was 0.1%. Control samples were treated with 0.1% DMSO.

MMP-9 = target: T2, MMP-9 (Homo sapiens, UniProt P14780); assay: as above; assay type: biochemical
T2 construct: the BML- prefix points to Enzo Life Sciences, own knowledge BML-AK308
T2 sequence (P14780 107-444 limits assumed): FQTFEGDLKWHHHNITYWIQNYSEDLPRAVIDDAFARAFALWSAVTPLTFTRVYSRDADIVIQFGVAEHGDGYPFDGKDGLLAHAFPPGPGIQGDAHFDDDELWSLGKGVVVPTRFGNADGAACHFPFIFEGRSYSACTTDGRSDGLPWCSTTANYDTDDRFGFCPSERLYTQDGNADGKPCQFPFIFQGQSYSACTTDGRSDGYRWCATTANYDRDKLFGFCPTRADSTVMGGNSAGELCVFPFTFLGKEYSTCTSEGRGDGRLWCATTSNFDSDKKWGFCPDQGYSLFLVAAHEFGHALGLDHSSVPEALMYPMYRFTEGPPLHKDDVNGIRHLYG
Experimental: as §5, §6

MMP-2 = target: T3, MMP-2 (Homo sapiens, UniProt P08253); assay: as above; assay type: biochemical
T3 construct: the BML- prefix points to Enzo Life Sciences, own knowledge BML-AK308
T3 sequence (P08253 110-446 limits assumed): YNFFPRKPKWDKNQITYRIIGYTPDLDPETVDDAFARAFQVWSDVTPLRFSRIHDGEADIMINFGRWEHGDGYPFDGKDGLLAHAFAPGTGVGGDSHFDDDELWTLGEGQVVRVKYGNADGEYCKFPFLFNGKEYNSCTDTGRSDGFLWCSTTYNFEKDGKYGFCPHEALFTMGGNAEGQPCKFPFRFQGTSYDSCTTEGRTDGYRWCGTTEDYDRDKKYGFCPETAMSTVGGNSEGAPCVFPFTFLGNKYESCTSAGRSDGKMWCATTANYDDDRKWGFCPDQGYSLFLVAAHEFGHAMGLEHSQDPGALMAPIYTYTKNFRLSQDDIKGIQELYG
Experimental: as §5, §6

MMP-3 = target: T4, MMP-3 (Homo sapiens, UniProt P08254); assay: as above; assay type: biochemical
T4 construct: the BML- prefix points to Enzo Life Sciences, own knowledge BML-AK308
T4 sequence (P08254 100-272 limits assumed): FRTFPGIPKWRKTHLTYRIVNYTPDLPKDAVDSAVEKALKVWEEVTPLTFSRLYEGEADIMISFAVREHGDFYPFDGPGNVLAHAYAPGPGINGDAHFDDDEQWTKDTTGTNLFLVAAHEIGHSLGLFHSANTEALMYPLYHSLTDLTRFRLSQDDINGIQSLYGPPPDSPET
Experimental: as §5, §6

B16 melanoma [2] = assay: Antitumor activity in vivo, tumor growth; set-up: species or system mouse; details: BDF1 mice, i.p., CP 100 mg/kg days 2, 7, cPt 4 mg/kg days 2–9, 4 300 mg/kg days 2–9
Experimental: as §3, §4
Tumor growth was monitored on days 0, 6, 8, 10, 13, 15, 17, and 20 by measuring the tumor size with a digital caliper. The mean tumor diameter was calculated using the formula:D = 3√a × b × c,(2) where a, b, and c are mutually perpendicular tumor diameters.

[3] = lungs, B16 melanoma, BDF1 mice, doses as in Table 5
[4] = concentration of 1 μM (Figure 3)

## O=C(CCC(=O)Nc1ccc(I)cc1)NO [Compound 4, N^1-hydroxy-N^4-(4-iodophenyl)butanediamide]
HeLa
  IC50: 297 ± 15.7 µM
FetMSC; Homo sapiens, 72 h of exposure, MTT
  IC50: > 500 µM
FetMSC; only at the highest concentration
  toxicity to FetMSC cells: some toxicity
A-172
  IC50: 418 ± 17.4 µM
HepG2
  IC50: 488 ± 23.9 µM
Vero
  IC50: > 500 µM
U-251 MG
  IC50: 401 ± 21.1 µM
B16 melanoma [1]; 300 mg/kg i.p. days 2–9
  reduction of the number of animals with metastases in the group: 50%
B16 melanoma [1]; [3]
  % Inhibition of Metastases: 88.6%
  Mean Number of Metastases per Mouse: 1.3 ± 0.9
  Metastasis Rate, %: 50%
B16 melanoma [1]; of 6 animals in the group, lungs, B16 melanoma, BDF1 mice, doses as in Table 5
  Number of Animals without Metastases: 3
MMP-14; [4]
  inhibition at 1 µM: ~50%
MMP-14; read-out: MMP-inhibiting activity IC50, MMP-14
  IC50: 1.49 ± 0.01 µM
MMP-9; [4]
  inhibition at 1 µM: ~50%
MMP-9; read-out: MMP-inhibiting activity IC50, MMP-9
  IC50: 1.06 ± 0.01 µM
MMP-2; [4]
  inhibition at 1 µM: ~50%
MMP-2; read-out: MMP-inhibiting activity IC50, MMP-2
  IC50: 1.26 ± 0.01 µM
MMP-3; [4]
  effect on MMP-3 activity: no effect
MMP-3; dose–effect relationship (Figure 4)
  concentration with significant effect on MMP-3 activity: approximately 10 μM
MMP-3; read-out: MMP-inhibiting activity IC50, MMP-3
  IC50: > 10 µM
B16 melanoma [2]
  Tumor Growth Inhibition, % Day 10: 34.5%
  Tumor Growth Inhibition, % Day 13: 61.5%
  Tumor Growth Inhibition, % Day 15: 50.4%
  Tumor Growth Inhibition, % Day 17: 44.6%
  Tumor Growth Inhibition, % Day 20: 42.3%
